In US20240417435A1, “DEFENSIN-DERIVED PEPTIDE WITH ANTIBACTERIAL ACTIVITY ALSO AGAINST MULTI-ANTIBIOTIC-RESISTANT BACTERIA” (priority 2021, published 2024):
In brackets after ≈: the same amount, converted by molar mass. Read-outs that look alike come from different tables or passages of the source. Where a SMILES comes first, the peptide text is derived from it. Bridges are numbered along the chain shown (N, C = ends).

What was measured:
[1] = tested on: P. aeruginosa MDR strain 1; format: cell-based, Pseudomonas aeruginosa
Procedure: (§1) The antimicrobial activity of peptide γ2 was evaluated versus Pseudomonas aeruginosa ATCC 27853, Escherichia coli ATCC 13762 and Staphylococcus aureus ATCC 6538, and versus multidrug-resistant (MDR) clinical isolates of Methicillin-Resistant Staphylococcus aureus (MRSA), extended-spectrum β-lactamase (ESBL)-producing E. coli, P. aeruginosa and Acinetobacter baumannii complex. The isolates were identified by mass spectrometry using the MALDI (matrix-assisted laser desorption/ionisation) mass spectrometer and the biochemical phenotyping method in a VITEKR 2 bioMérieux system (bioMérieux Italia S.p.a., Bagno a Ripoli, Florence, Italy), according to the manufacturer's instructions. The antibiotic susceptibility profile was evaluated with the VITEKR 2 bioMérieux System. The microorganisms were cultured in broth and agar at 37° C. The media used were BD Brain Heart Infusion broth (BHI) (BD, Franklin Lakes, NJ, USA) and BHI agar (OXOID, Basingstoke, Hampshire, UK), BD Trypticase Soy agar with 5% sheep's blood and MacConkey agar (OXOID, Basingstoke, Hampshire, UK). The isolates were stored frozen at −80° C. in BHI broth supplemented with 10% (v/v) glycerol (Carlo Erba Reagents, Milan, Italy) until use, and the work cultures were activated in the respective broths at 37° C. for 15-18 h.
(§2) Assays of the antibacterial activity of peptide γ2, in both reduced and oxidised form, were conducted against P. aeruginosa ATCC 27853, E. coli ATCC 13762, S. aureus ATCC 6538 and MDR clinical isolates. The strains were cultured under aerobic conditions in BHI broth at 37° C. and incubated with peptide γ2 for 2 hours at 37° C. Various concentrations of peptide were used, ranging from 1 μM to 128 μM. Each test was conducted in triplicate with three independent cultures. The minimum inhibitory concentration (MIC) and the minimum bactericidal concentration (MBC) of the peptide were determined with a modified version of the Clinical and Laboratory Standards Institute broth microdilution assay, using a final inoculum concentration of 10^5 CFU/ml, as previously described (Scudiero O et al., Antimicrob Agents Chemother 2010; 54:2312-22; Scudiero O et al. Antimicrob Ag Chemother 2013; 57:1701-8).
(§3) The MIC is indicated by the concentration interval, which comprise the upper growth limit and the first concentration which could not support visible bacterial growth after incubation. The MBC was defined as the lowest concentration at which no viable colonies were observed. The peptide concentrations were 128.0, 64.0, 32.0, 16.0, 8.0, 4.0, 2.0 and 1 μM. For the time-kill studies against the ATCC and MDR strains, the bacteria were cultured in BHI broth until the late log growth phase at 37° C. The bacterial suspensions, containing about 10^6 CFU/ml (adjusted by the spectrophotometer to OD600 nm), were diluted 1:100 in PBS1× and then incubated at 37° C. with or without the peptide, selected at concentrations corresponding to 1, 2 and 4×MIC (as determined above). At baseline and 1, 2, 3 and 5 hours after incubation, a portion of each sample was harvested, diluted in series in PBS1× and seeded on BHI agar. The plates were incubated for […] at 37° C., and the viable bacteria count was conducted by the CFU method. All the data were expressed as mean±SD of three independent experiments.

P. aeruginosa ATCC 27853 = format: cell-based, Pseudomonas aeruginosa
Procedure: as §1, §2, §3

[2] = tested on: P. aeruginosa MDR strain 2; format: cell-based, Pseudomonas aeruginosa
Procedure: as §1, §2, §3

[3] = tested on: A. baumannii MDR strain 2; format: cell-based, Acinetobacter baumannii complex
Procedure: as §1, §2, §3

[4] = tested on: A. baumannii MDR strain 1; format: cell-based, Acinetobacter baumannii complex
Procedure: as §1, §2, §3

MRSA strain 2 = format: cell-based, Staphylococcus aureus
Procedure: as §1, §2, §3

S. aureus ATCC 6538 = format: cell-based, Staphylococcus aureus
Procedure: as §1, §2, §3

MRSA strain 1 = format: cell-based, Staphylococcus aureus
Procedure: as §1, §2, §3

MRSA strain 3 = format: cell-based, Staphylococcus aureus
Procedure: as §1, §2, §3

E. coli ESBL strain 2 = format: cell-based, Escherichia coli
Procedure: as §1, §2, §3

E. coli ESBL strain 1 = format: cell-based, Escherichia coli
Procedure: as §1, §2, §3

E. coli ATCC 13762 = format: cell-based, Escherichia coli
Procedure: as §1, §2, §3

HUVEC endothelial cells = assay: Cell migration assay in Boyden chambers; format: cell-based; conditions: endothelial cells (HUVEC); 10 nM; 4 h
Procedure: (§4) Cell migration assays were conducted as previously described (Bifulco K et al., Mol Cancer There 2013; 2:1981-93), using Boyden chambers and polyvinylpyrrolidone-free polycarbonate filters with 8 μm pores inserted between a lower and upper compartment. Briefly, the cell suspension (1×10^5 viable cells/mL of serum-free medium) was seeded in each upper chamber. The lower chambers were filled with DMEM only, DMEM containing 10 nM N-formyl-methionyl-leucylphenylalanine peptide (fMLF), as positive control, or increasing peptide γ2 concentration. Incubation was conducted for 4 h at 37° C. in air humidified with 5% CO2. At the end of the assay, the cells on the lower surface of the filter were fixed with ethanol and stained with haematoxylin, and 10 random fields/filter were counted with a 200× magnification. The extent of cell migration was expressed as a percentage of baseline cell migration evaluated in the absence of chemo-attractants, taken as 100% (CTRL).

A549 cells = assay: Cell migration assay in Boyden chambers; format: cell-based; conditions: 10 nM, 4 h
Procedure: as §4

HT-1080 cells = assay: Cell migration assay in Boyden chambers; format: cell-based; conditions: 10 nM, 4 h
Procedure: as §4

CC[C@H](C)[C@@H]1NC(=O)[C@H](CCC(N)=O)NC(=O)[C@H](CCCNC(=N)N)NC(=O)[C@H](CCCNC(=N)N)NC(=O)[C@H](CCCCN)NC(=O)[C@@H]2CCCN2C(=O)[C@H](CC(C)C)NC(=O)[C@@H](NC(C)=O)CSSC[C@@H](C(=O)N[C@@H](CCCCN)C(=O)N[C@@H](CCCCN)C(N)=O)NC(=O)[C@H](CO)NC(=O)[C@H](CCCCN)NC(=O)[C@H](CCCNC(=N)N)NC(=O)CNC(=O)[C@H](CCCNC(=N)N)NC(=O)[C@H]([C@@H](C)O)NC(=O)[C@H](CO)NC(=O)[C@H](CO)NC(=O)[C@H](CCCCN)NC(=O)CNC1=O [Oxidised peptide γ2] (Ac-CLPKRRQIGKSSTRGRKSCKK-NH2; disulfide 1-19 (inferred))
MBC [1]: 32 µM (≈ 78.6 µg/mL)
MBC (P. aeruginosa ATCC 27853): 4 µM (≈ 9.83 µg/mL)
MBC [2]: 32 µM (≈ 78.6 µg/mL)
MIC [2]: 1 µM (≈ 2.46 µg/mL)
MBC ([3]; MDR strain 2): 4 µM (≈ 9.83 µg/mL)
MIC ([3]; MDR strain 2): 4 µM (≈ 9.83 µg/mL)
MIC ([3]; multidrug-resistant clinical strain 2 of A. baumannii): 4 µM (≈ 9.83 µg/mL)
MBC [4]: 128 µM (≈ 314 µg/mL)
MBC (MRSA strain 2): 16 µM (≈ 39.3 µg/mL)
MIC (MRSA strain 2): 2 µM (≈ 4.91 µg/mL)
MBC (S. aureus ATCC 6538): 8 µM (≈ 19.7 µg/mL)
MBC (MRSA strain 1): 2 µM (≈ 4.91 µg/mL)
MIC (MRSA strain 1): 1 µM (≈ 2.46 µg/mL)
MBC (MRSA strain 3): 32 µM (≈ 78.6 µg/mL)
MIC (MRSA strain 3): 2 µM (≈ 4.91 µg/mL)
MBC (E. coli ESBL strain 2): 32 µM (≈ 78.6 µg/mL)
MIC (E. coli ESBL strain 2): 1 µM (≈ 2.46 µg/mL)
MBC (E. coli ESBL strain 1): 2 µM (≈ 4.91 µg/mL)
MIC (E. coli ESBL strain 1): 2 µM (≈ 4.91 µg/mL)
MBC (E. coli ATCC 13762): 1 µM (≈ 2.46 µg/mL)
MIC (E. coli ATCC 13762): 1 µM (≈ 2.46 µg/mL)

N-formyl-methionyl-leucylphenylalanine peptide [fMLF, reference compound]
cell migration, % of the baseline cell migration (HUVEC endothelial cells): 166%
cell migration, % of the baseline cell migration (A549 cells): 153%
cell migration, % of the baseline cell migration (HT-1080 cells): 167%
